We go through seven molecules from US5541183A, “Ginkgolide derivatives” (priority 1993, dated 1996).

In one experiment the test system is bronchial eosinophilia. In words: aeroallergen-induced bronchial infiltration of eosinophils in the bronchoalveolar lavage fluid. Format: in vivo, guinea pig (Hartley strain). The note with it: 30 mg/kg p.o., + 4h after aeroallergen challenge; for % Inhibition of bronchial eosinophilia: at 24 hours; for Eosinophils in BALF (Mean ± SEM): counted at 24 hours, vehicle 927 ± 131. The protocol: Pharmacology Example 4: The aeroallergen-induced bronchial infiltration of eosinophils in the bronchoalveolar lavage fluid.
Adult, male Hartley-strain guinea pigs weighing 492-735 g were sensitized by intraperitoneal injection of 10 μg ovalbumin (OA) mixed in 100-mg aluminum hydroxide. And guinea pigs were pretreated with pyrilamine (1.0 mg/kg) intraperitoneally 30 min. before aeroallergen challenge. Individual guinea pigs were placed in a two-liter glass chamber and exposed to a five aerosol of OA solution (0.5 mg/ml in saline containing 0.02% antifoal emulsion for a period of 10 min.).
4 hours after aero allergen challenge, the guinea pigs received either vehicle or compounds suspended in 1% acacia by oral garage.
24 hours after aero allergen challenge, the animals were euthanized with an i.p. overdose of pentobarbital sodium (100 mg/kg). The abdominal cavity was opened, and the animal was exsaguinated by cutting the abdominal aorta. A midline incision was made through the rib cage, exposing the heart and lungs.
The trachea was cannulated with an 18-gauge stainless steel feeding tube; 20 ml/kg of prewarmed (37° C.) physiological saline was instilled and the BALF was gently withdrawn.
BALF (amounting to 60-80% of the saline infused) was transferred to a 10 ml vacutainer containing 0.10 ml of 15% EDTA solution and centrifugated at 2400 rpm for 10 min.
The supernatant was poured off, and the cell pellet was suspended in physiological saline equal to the ratio of BALF recovered (ml) and physiological saline instilled in the lungs (ml), multiplied by two.
The eosinophils in BALF were counted by Unopette Test 5877.
The mean numbers of eosinophils±SEM in the BALF of compound-treated animals and corresponding control "vehicle"-treated animals were compared by Student's t-test. A P value of 0.05 or less was considered significant. Table 4 lists results from this assay for inhibition of bronchial eosinophilia for illustrative examples of this invention.

The subject of experiment [1] is Ag-induced bronchoconstriction. In words: Ag-induced bronchoconstriction in the guinea pig. Type of experiment: in vivo, guinea pig (Hartley strain). The note with it: for ED50: Cavia porcellus, iv, 10 min, read-out: ID50, Ag-induced bronchoconstriction. The protocol: Pharmacology Example 3: Ag-induced bronchoconstriction
All experiments utilized male guinea pigs (Hartley strain), weighing 350 to 500 g. The animal was passively sensitized with rabbit anti-chicken egg albumin (1.3 mg/kg), 17-24 hrs before ovaibumin challenge. Passively sensitized animals were anesthetized with ethyl carbamate 1.5 g/kg, i.p.). An intratracheal cannula was inserted into trachea and indwelling catheters were inserted into the right carotid artery and left jugular vein. The animals were ventilated with a small animal respirator (UGO BASILE 7025, 70 breaths/min, 1 ml/stroke/100 g). To monitor dead or not, mean arterial pressure was measured continuously with a pressure transducer (Physiological Pressure Transducer, MICRON INSTRUMENT MP-15) connected to an amplifier (COULBOURN INSTRUMENT 572-25) and recorder (COULBOURN INSTRUMENT R14-18). The rate of bronchoconstriction was measured as an increase in lung overflow with a bronchospasm transducer (UGO BASILE 7020) from a side arm off the tracheal cannula, and expressed as a percentage of maximum broncoconstriction obtained by clamping off the tracheal cannular. Test compounds or vehicle (0.5% DMSO) were administered through the cannula into the jugular vein and ovalbumin (1.0 mg/kg, i.v.) was administered 10 minutes later. Bronchoconstriction response was compared to that obtained with control group treated with vehicle. Percent inhibition was calculated for each dose. If necessary, log dose-response curves were generated and the ID50 values were determined by regression analysis.

In experiment [2] the test system is PAF-induced bronchoconstriction. In words: PAF-induced bronchoconstriction in the guinea pig. The note with it: for ED50: Cavia porcellus, iv, read-out: ID50, PAF-induced bronchoconstriction. Type of experiment: in vivo, guinea pig (Hartley strain). The protocol: Pharmacology Example 2: PAF-induced bronchoconstriction
All experiments utilized male guinea pigs (Hartley strain), weighing 350 to 450 g, that were anesthetized with ethyl carbamate (1.5 g/kg, i.p.). An intratracheal cannula was inserted into trachea and indwelling catheters were inserted into the right carotid artery and left jugular vein. The animals were ventilated with a small animal respirator (UGO BASILE 7025, 70 breaths/min, 1 ml/stroke/100 g). To monitor dead or not, mean arterial pressure was measured continuously with a pressure transducer (Physiological Pressure Transducer, MICRON INSTRUMENT MP-15) connected to an amplifier (COULBOURN INSTRUMENT 572-25) and recorder (COULBOURN INSTRUMENT R14-18). The rate of bronchoconstriction was measured as an increase in lung overflow with a bronchospasm transducer (UGO BASILE 7020) from a side arm off the tracheal cannula, and expressed as a percentage of maximum bronchoconstriction obtained by clamping off the tracheal cannula. Test compounds or vehicle (0.5% DMSO) were administered through the cannula into the jugular vein and PAF (100 ng/kg, i.v.) was administered. Bronchoconstriction response was compared to that obtained with control group treated with vehicle. Percent inhibition was calculated for each dose. Log dose-response curves were generated and the ID50 values were determined by regression analysis, and the results are presented in Table 2.
Table 2: Results for inhibition of PAF-induced bronchoconstriction in the guinea pig.

The test system of experiment [3] is PAF-induced rabbit platelet aggregation. In words: PAF-induced rabbit platelet aggregation. Format: cell-based, rabbit (New Zealand white). The note with it: Oryctolagus cuniculus, read-out: IC50, inhibition of PAF-induced rabbit platelet aggregation. The protocol:
Pharmacology Example 1: PAF-induced rabbit platelet aggregation
Blood was collected from the ear artery of a male New Zealand white rabbit and mixed with 3.8% sodium citrate in a 9:1 volume ratio. Platelet rich plasma (PRP) was obtained by centrifugation of the blood at 150 g for 10 min at room temperature. The number of platelets was adjusted to 3×10^8 platelets/ml with platelet poor plasma. Platelet aggregation was monitored by continuous recording of light transmission in a dual-channel aggregometer (Chrono-Log 560-VS) coupled with a two channel recorder (Chrono-Log 707). Stirred PRP was treated with various concentrations of the test compounds or vehicle (0.5% DMSO) for 2 min and then PAF(5×10^-9 M) was added to induce platelet aggregation.
Inhibition values were calculated by comparing the extent of aggregation obtained in the presence of the vehicle alone (0.5% DMSO) and in the presence of a test compound. Log concentration-response curves were generated and the IC50 values were determined by regression analysis.
Table 1 lists results from this assay for inhibition of PAF-induced rabbit platelet aggregation for illustrative examples of the compounds of this invention.

In another experiment the test system is PAF induced Lethality. In words: PAF induced Lethality in Mice. Type of experiment: in vivo. The note with it: 10 mg/kg intraperitoneally, 2 minutes before PAF 10 μg/kg I.V.; alive after 2 hours; control 0. The protocol:
Pharmacology Example 5: PAF induced Lethality in Mice
PAF given I.V. (10 μg/kg) to mice causes an immediate hypotensive shock leading to death in 1 hour or less. Compounds were given intraperitoneally (dose of compounds : 10 mg/kg) at 2 minutes before the PAF challenge. Animals alive after 2 hours were counted and the activity of test compounds expressed as % survival corrected for any control (saline treated) animals which survived the PAF challenge.

The mark [4] stands for this setting: 0.1 mg/kg, jugular vein, ovalbumin 1.0 mg/kg i.v. 10 minutes later.
Where [5] appears, read: 0.5 mg/kg, jugular vein, ovalbumin 1.0 mg/kg i.v. 10 minutes later.
[6] abbreviates: 1.0 mg/kg, jugular vein, ovalbumin 1.0 mg/kg i.v. 10 minutes later.
Where [7] appears, read: jugular vein, ovalbumin 1.0 mg/kg i.v. 10 minutes later.

Each structure is given as a SMILES string. Read-outs that look alike come from different tables or passages of the source.

With `CC1C(=O)OC2C(O)C34C5CC(C(C)(C)C)C36C(OC(=O)C6O)OC4(C(=O)O5)C12O` (stereo not shown) [Ginkgolide B, reference compound], the “% Inhibition of bronchial eosinophilia” value in the experiment with bronchial eosinophilia worked out at 0%. Besides, in the experiment with bronchial eosinophilia, the “Eosinophils in BALF (Mean ± SEM)” value was 1148 ± 305 10^3 cells/m1 BALF. In addition, the “% inhibition of Ag-induced bronchoconstriction” value was 10% in experiment [1] (setting [4]), 42% in experiment [1] (setting [5]) and 82% in experiment [1] (setting [6]). Besides, the values for the ED50 in experiment [1] (setting [7]) and in experiment [2] were 0.83 mg/kg and 0.6 mg/kg, respectively. Besides, the “% inhibition of PAF-induced bronchoconstriction” value was determined as 38% in experiment [2] (0.50 mg/kg, jugular vein, PAF 100 ng/kg i.v.); 64% in experiment [2] (1.00 mg/kg, jugular vein, PAF 100 ng/kg i.v.); 100% in experiment [2] (2.00 mg/kg, jugular vein, PAF 100 ng/kg i.v.). The IC50 (in general, the concentration that inhibits the measured activity by half) in experiment [3] (rabbit PRP, PAF 5×10^-9 M) was 258 nM.

Consider `Cc1cnc(COC2C(=O)OC3OC45C(=O)OC6CC(C(C)(C)C)C32C64C(O)C2OC(=O)C(C)C25O)c(C)c1` (stereo not shown) [Example 96, 10-(3,5-dimethyl-2-pyridinyl) -methoxy-Ginkgolide], for which, in the experiment on bronchial eosinophilia, the “% Inhibition of bronchial eosinophilia” value is given as 31%. In addition, in the experiment with bronchial eosinophilia, the “Eosinophils in BALF (Mean ± SEM)” value is 641 ± 134 10^3 cells/m1 BALF. Further, the “% inhibition of Ag-induced bronchoconstriction” value was 50% in experiment [1] (setting [4]), 97% in experiment [1] (setting [5]) and 100% in experiment [1] (setting [6]). The ED50 in experiment [1] (setting [7]) stood at 0.1 mg/kg; in experiment [2] (jugular vein, PAF 100 ng/kg i.v.), 0.023 mg/kg. The “Survival rate (%)” value in the experiment on PAF induced Lethality is recorded as 100%. Further, the “% inhibition of PAF-induced bronchoconstriction” value in experiment [2] (0.01 mg/kg, jugular vein, PAF 100 ng/kg i.v.) amounted to 17%; in experiment [2] (0.02 mg/kg, jugular vein, PAF 100 ng/kg i.v.) it was 26%; in experiment [2] (0.04 mg/kg, jugular vein, PAF 100 ng/kg i.v.), 96%. The IC50 in experiment [3] (rabbit PRP, PAF 5×10^-9 M) amounted to 24.5 nM.

As for `Cc1cnc(COC2C(=O)OC3OC45C(=O)OC6CC(C(C)(C)C)C32C64C(O)C2OC(=O)C(C)C25O)c(C)c1N` (stereo not shown) [Example 103, 10-(3,5-dimethyl-4-amino-2-pyridinyl)-methoxy-Ginkgolide B], the “% inhibition of Ag-induced bronchoconstriction” value in experiment [1] (setting [4]) turned out to be 10%; in experiment [1] (setting [5]) it was 62%; in experiment [1] (setting [6]) it was 97%. Moreover, in experiment [1] (setting [7]), the ED50 is 0.48 mg/kg. Moreover, the IC50 in experiment [3] (rabbit PRP, PAF 5×10^-9 M) was 87.7 nM.

In the case of `CC1C(=O)OC2C(O)C34C5CC(C(C)(C)C)C36C(OC(=O)C6OCc3ccc6c(c3)OCO6)OC4(C(=O)O5)C12O` (stereo not shown) [Example 82, 10-piperonyloxy-Ginkgolide B], the “% Inhibition of bronchial eosinophilia” value in the experiment with bronchial eosinophilia came to 34%. For the same molecule, the “Eosinophils in BALF (Mean ± SEM)” value in the experiment with bronchial eosinophilia is on record as 616 ± 145 10^3 cells/m1 BALF. The “% inhibition of Ag-induced bronchoconstriction” value amounted to 60% in experiment [1] (setting [4]), 94% in experiment [1] (setting [5]) and 100% in experiment [1] (setting [6]). Moreover, the ED50 in experiment [1] worked out at 0.09 mg/kg. In the experiment on PAF induced Lethality, the “Survival rate (%)” value worked out at 100%. Also, in experiment [3], the IC50 came out at 50.7 nM.

As to `COc1c(C)cnc(COC2C(=O)OC3OC45C(=O)OC6CC(C(C)(C)C)C32C64C(O)C2OC(=O)C(C)C25O)c1C` (stereo not shown) [Example 97, 10-(4-methoxy-3,5-dimethyl-2-pyridinyl) -methoxy-Ginkgolide B], the “% inhibition of Ag-induced bronchoconstriction” value in experiment [1] (setting [4]) turned out to be 30%; in experiment [1] (setting [5]), 68%; in experiment [1] (setting [6]) it was 100%. The ED50 in experiment [1] (setting [7]) was determined as 0.42 mg/kg. In addition, the IC50 in experiment [3] (rabbit PRP, PAF 5×10^-9 M) was found to be 38.9 nM.

As to `CC1C(=O)OC2C(O)C34C5CC(C(C)(C)C)C36C(OC(=O)C6OCc3ccc(O)cn3)OC4(C(=O)O5)C12O` (stereo not shown) [Example 115, 10-(2-(5-hydroxypyridinyl)-methoxy)-Ginkgolide B], the “% inhibition of Ag-induced bronchoconstriction” value in experiment [1] (setting [4]) amounted to 65%; in experiment [1] (setting [5]) it was 100%; in experiment [1] (setting [6]), 100%. In experiment [1] (setting [7]), the ED50 came out at 0.08 mg/kg. Further, in the experiment on PAF induced Lethality, the “Survival rate (%)” value came out at 100%. Moreover, in experiment [3] (rabbit PRP, PAF 5×10^-9 M), the 50% inhibitory concentration (IC50) came to 152 nM.

Turning to `CC1C(=O)OC2C(O)C34C5CC(C(C)(C)C)C36C(OC(=O)C6OCc3ccccn3)OC4(C(=O)O5)C12O` (stereo not shown) [Example 99, 10-(2-pyridinyl)-methoxy-Ginkgolide B], the “% inhibition of Ag-induced bronchoconstriction” value turned out to be 42% in experiment [1] (setting [4]), 73% in experiment [1] (setting [5]) and 100% in experiment [1] (setting [6]). In experiment [1], the ED50 came out at 0.31 mg/kg. Moreover, the IC50 in experiment [3] came out at 30.7 nM.
